Data reported in article PMC10541198, “Specific quinone reductase 2 inhibitors reduce metabolic burden and reverse Alzheimer’s disease phenotype in mice” (The Journal of Clinical Investigation, 2023).
“And” between values parts separate entries of the source, which are not always exact repeats. Equal entries are not always repeated.

System: QR2Δ HCT116 cells
Experiment: H2DCFDA detection of cellular ROS in QR2 KO cells
Type: cell-based, human
Settings: 20 μM, 3 hour
Description: To establish direct target engagement and cell membrane permeability, a cellular thermal shift assay (CETSA) was carried out, using leading QR2is YB’s-537, 800, and 808. Following a 1 hour preincubation with 5 μM of the QR2is or vehicle, thermal aggregation curves (Taggs) of QR2 expressed in HEK293T were measured in increasing temperatures. All QR2is increased QR2 thermal stability compared with vehicle (Supplemental Figure 2A). Based on the Tagg curves we selected 73°C for isothermal dose-response fingerprint (IDTRF) experiments (Supplemental Figure 2B). The ITDRF allowed the relative quantification of the binding of each of the QR2is to QR2, measured as the EC50 (Figure 3A). […] We evaluated the safety of the QR2is using cell toxicity and viability assays. […] Cell viability was assessed by XTT assay in HEK239T cells, using a dose response, with 3- or 24-hour incubations of the leading QR2is. […] We then assessed WT HCT116 cells by immunoblot (Supplemental Figure 2, C and D), after being treated with YB-800 (2 μM) for 4 consecutive days. […]
The cells wer e har ves t ed a nd resuspended in 1% cl ear m e di um ( DM EM – with no phenol red, suppl em ent ed with 1% FBS, 1% L-Glutamine and 1% Penicillin-Streptomycin). […] The plate wa s then incubated in the dark at 37°C f or 3 h, before reading in a Tecan M200 Pro florescence microplate reader, using wavelengths Ex/Em = 485 nm / 535 nm . […]

Compound: Cc1ccc(-c2cn3cccc(C)c3n2)cc1S(=O)(=O)N1CCC(C)CC1 [YB-800]
- ROS levels (replicates): 0.1657 and -0.09332 and -0.11 and 0.01889 and -0.0308
